Test results taken from patent publication US5981704A, “Kainate-binding, human CNS receptors of the EAA2 family” (Allelix Biopharmaceutical, priority 1997, dated 1999).

Legend:
human EAA2a receptor [1] = target: T1, human EAA2a receptor (Homo sapiens, UniProt Q16478); experiment: [3H]-kainate binding assay (Scatchard analysis and displacement) on membranes of transfected COS-1 cells; details: for rank order of potency in displacement of [3H]-labelled kainate binding: FIG. 6
T1 construct: This modification permitted the full length cDNA insert to be released as a 3.7 kb NotI/NotI fragment; expressed in transfected cells; host or cells: COS-1 (ATCC CRL 1650), transient, plasmid pcDNA1/humEAA2a; membranes
T1 sequence (Q16478 15-980): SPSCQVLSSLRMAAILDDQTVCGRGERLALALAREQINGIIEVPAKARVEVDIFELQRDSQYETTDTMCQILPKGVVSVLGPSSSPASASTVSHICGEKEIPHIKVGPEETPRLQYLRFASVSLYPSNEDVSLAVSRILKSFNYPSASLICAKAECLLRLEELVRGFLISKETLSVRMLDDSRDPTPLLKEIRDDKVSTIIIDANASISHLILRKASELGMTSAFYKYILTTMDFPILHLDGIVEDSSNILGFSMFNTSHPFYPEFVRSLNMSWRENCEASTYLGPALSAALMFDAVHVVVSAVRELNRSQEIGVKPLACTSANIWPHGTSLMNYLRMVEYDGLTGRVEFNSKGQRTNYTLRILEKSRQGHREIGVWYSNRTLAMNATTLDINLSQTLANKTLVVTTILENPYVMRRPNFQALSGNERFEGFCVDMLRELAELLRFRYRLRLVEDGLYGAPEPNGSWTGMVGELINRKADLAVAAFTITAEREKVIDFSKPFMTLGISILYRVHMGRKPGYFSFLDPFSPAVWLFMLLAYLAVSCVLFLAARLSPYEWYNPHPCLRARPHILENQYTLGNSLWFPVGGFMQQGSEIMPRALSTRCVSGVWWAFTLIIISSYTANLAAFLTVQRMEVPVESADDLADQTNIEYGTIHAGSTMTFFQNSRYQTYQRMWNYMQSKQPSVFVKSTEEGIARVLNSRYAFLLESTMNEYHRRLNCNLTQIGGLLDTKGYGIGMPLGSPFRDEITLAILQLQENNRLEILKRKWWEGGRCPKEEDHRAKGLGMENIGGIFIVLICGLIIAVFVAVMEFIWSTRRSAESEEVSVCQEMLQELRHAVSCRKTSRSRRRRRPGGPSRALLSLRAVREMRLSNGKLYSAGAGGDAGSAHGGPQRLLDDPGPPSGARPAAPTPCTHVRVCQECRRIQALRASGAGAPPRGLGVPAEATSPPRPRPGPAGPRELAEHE
Experimental: (§1) Transfected cells in the frozen state were resuspended in ice-cold distilled water using a hand homogenizer and centrifuged for 20 minutes at 50,000 g. The supernatant was discarded and the membrane pellet stored frozen at -70° C.
(§2) COS cell membrane pellets were suspended in ice cold 50 mM Tris-HCl (pH 7.55, 5C) and placed inside Spectrapor 7 (EDTA-treated, sulfur-fee) dialysis tubing. The suspension was placed in 4 liters of ice cold 50 mM Tris-HCl (pH 7.55, 5C) and dialyzed for 16-24 hours at 5C in order to remove endogenous glutamate that would compete for binding. The tissue suspension was recovered from the tubing along with a small volume of buffer used to rinse the tubing. This resultant membrane preparation was used as tissue source for binding experiments described below. Proteins were determined using the Pierce Reagent with BSA as standard.
Binding assays were then performed, using an amount of COS-derived membrane equivalent to from 25-100 ug as judged by protein determination and selected radiolabelled ligand. In particular, glutamate binding assays entailed formation of an incubation mixture consisting of 25-100 ug of tissue protein, and [3.4-3H]L-glutamic acid (47.3 Ci/mmole, 10 nM final) in 50 mM Tris-HCl (pH 7.55, 5C) in 1 ml final volume. Non-specific binding was in the presence of 1 mM L-glutamate. Samples were incubated on ice for 60 minutes in plastic minivials. Bound and free ligand were separated by centrifugation for 10 minutes at 50,000 g (4° C.). Tissue pellets were washed superficially with 2×6 ml of ice cold incubation buffer. Pellets were solubilized and counted in 5 ml of Beckman Ready Protein Scintillation cocktail.
For kainate binding assays, incubation mixtures consisted of 25-100 μg tissue protein and [vinylidene-3H] kainic acid (58 Ci/mmole, 5 nM final) in the cold incubation buffer, 1 ml final volume. Non-specific binding was in the presence of 1 mM L-glutamate. Samples were incubated as for the glutamate binding assays, and bound and free ligand were separated by rapid filtration using a Brandel cell harvester and GF/B filters pro-soaked in ice-cold 0.3% polyethyleneimine. Filters were washed twice in 6 ml of the cold incubation buffer, then placed in scintillation vials with 5 ml of Beckman Ready-Safe scintillation cocktail for counting.

human EAA2a receptor [2] = target: T1, human EAA2a receptor; experiment: [3H]-glutamate binding assay on membranes of transfected COS-1 cells; details: [3H]-glutamate at 10 nM; non-specific binding with 1 mM L-glutamate
Experimental: as §1, §2
Binding assays were then performed, using an amount of COS-derived membrane equivalent to from 25-100 ug as judged by protein determination and selected radiolabelled ligand. In particular, glutamate binding assays entailed formation of an incubation mixture consisting of 25-100 ug of tissue protein, and [3.4-3H]L-glutamic acid (47.3 Ci/mmole, 10 nM final) in 50 mM Tris-HCl (pH 7.55, 5C) in 1 ml final volume. […] Pellets were solubilized and counted in 5 ml of Beckman Ready Protein Scintillation cocktail.

SMILES: CC(C)[C@H]1CN[C@H](C(=O)O)[C@H]1CC(=O)O [dihydrokainate]
- rank order of potency in displacement of [3H]-labelled kainate binding (human EAA2a receptor [1]): kainate>domoate>quisqualate>glutamate>DNQX>dihydrokainate>CNQX>AMPA

SMILES: C/C(=C/C=C/[C@@H](C)C(=O)O)[C@H]1CN[C@H](C(=O)O)[C@H]1CC(=O)O [domoate]
- rank order of potency in displacement of [3H]-labelled kainate binding (human EAA2a receptor [1]): kainate>domoate>quisqualate>glutamate>DNQX>dihydrokainate>CNQX>AMPA

SMILES: N[C@@H](CCC(=O)O)C(=O)O [glutamate, L-glutamic acid]
- rank order of potency in displacement of [3H]-labelled kainate binding (human EAA2a receptor [1]): kainate>domoate>quisqualate>glutamate>DNQX>dihydrokainate>CNQX>AMPA
- specific binding of labelled ligand (human EAA2a receptor [2]): specific

SMILES: C=C(C)[C@H]1CN[C@H](C(=O)O)[C@H]1CC(=O)O [kainate, kainic acid]
- Kd (human EAA2a receptor [1]): 2.9 nM
- rank order of potency in displacement of [3H]-labelled kainate binding (human EAA2a receptor [1]): kainate>domoate>quisqualate>glutamate>DNQX>dihydrokainate>CNQX>AMPA
- maximum binding (Bmax) (human EAA2a receptor [1]; Scatchard analysis of [3H]-kainate binding): 691 fmol/mg protein
- specific binding of labelled ligand (human EAA2a receptor [1]; [3H]-kainate at 5 nM, non-specific binding with 1 mM L-glutamate): specific
- kainate binding affinity (in words) (human EAA2a receptor [1]; nanomolar range): high affinity

SMILES: N#Cc1cc2[nH]c(=O)c(=O)[nH]c2cc1[N+](=O)[O-] [CNQX]
- rank order of potency in displacement of [3H]-labelled kainate binding (human EAA2a receptor [1]): kainate>domoate>quisqualate>glutamate>DNQX>dihydrokainate>CNQX>AMPA

SMILES: O=c1[nH]c2cc([N+](=O)[O-])c([N+](=O)[O-])cc2[nH]c1=O [DNQX]
- rank order of potency in displacement of [3H]-labelled kainate binding (human EAA2a receptor [1]): kainate>domoate>quisqualate>glutamate>DNQX>dihydrokainate>CNQX>AMPA

SMILES: N[C@@H](Cn1oc(=O)[nH]c1=O)C(=O)O [quisqualate]
- rank order of potency in displacement of [3H]-labelled kainate binding (human EAA2a receptor [1]): kainate>domoate>quisqualate>glutamate>DNQX>dihydrokainate>CNQX>AMPA

SMILES: N[C@@]1(C(=O)O)CC[C@@H](C(=O)O)C1 [1S,3R-ACPD]
- displacement of kainate (human EAA2a receptor [1]; concentrations up to 100 uM): No displacement
